Molecular target: T1, Sodium- and chloride-dependent glycine transporter 1 (Homo sapiens, UniProt P48067)
T1 sequence (P48067 whole entry): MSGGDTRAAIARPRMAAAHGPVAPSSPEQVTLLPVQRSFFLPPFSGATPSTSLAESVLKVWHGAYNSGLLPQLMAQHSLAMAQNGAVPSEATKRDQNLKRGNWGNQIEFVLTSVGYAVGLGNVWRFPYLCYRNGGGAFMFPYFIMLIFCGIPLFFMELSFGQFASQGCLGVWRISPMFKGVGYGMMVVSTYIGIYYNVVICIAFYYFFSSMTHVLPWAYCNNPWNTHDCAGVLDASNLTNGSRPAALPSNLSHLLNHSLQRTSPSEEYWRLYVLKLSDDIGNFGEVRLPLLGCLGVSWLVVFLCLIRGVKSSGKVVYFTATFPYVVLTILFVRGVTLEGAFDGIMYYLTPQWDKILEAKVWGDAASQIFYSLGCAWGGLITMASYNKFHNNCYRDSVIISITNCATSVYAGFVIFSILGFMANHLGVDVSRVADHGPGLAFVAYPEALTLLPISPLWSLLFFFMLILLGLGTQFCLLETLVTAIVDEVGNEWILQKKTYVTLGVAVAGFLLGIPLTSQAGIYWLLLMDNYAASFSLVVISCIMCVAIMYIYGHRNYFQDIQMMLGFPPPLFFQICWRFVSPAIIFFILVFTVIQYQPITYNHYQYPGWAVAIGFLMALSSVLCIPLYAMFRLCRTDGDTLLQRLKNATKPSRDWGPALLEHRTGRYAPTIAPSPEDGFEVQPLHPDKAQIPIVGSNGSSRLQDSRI
Description: Substrate uptake and inhibition of the Glycine Transporter-1 (GlyT1, SLC6A9) as assessed by the fluorescent FLIPR membrane potential dye in HEK-293 JumpIN-SLC6A9 cells (PubChem AID: 1794809)

- EC50: 106 µM
Structure (SMILES): NCC(=O)O [GLYCINE]

From ChEMBL document CHEMBL5209588, “Membrane potential based assay for SLC6A9 using HEK-293 SLC6A9 OE cells” (2022)
